Results on 4 compounds are retold here after patent US20230080144A1, “REAL-TIME FLUORESCENCE IMAGING SENSOR FOR MEASURING GLUTATHIONE IN ENDOPLASMIC RETICULUM AND METHOD USING SAME” (CELL2IN, INC., priority 2019, published 2023).

This series relates to UC-MSCs. As to the kind of experiment: Cytotoxicity test (EZ-cytox). In kind it is cell-based. As to conditions: for IC50: 24 hours treatment at 5, 10, 20 and 40 μM, absorbance at 450 nm. How it is done: (1) UC-MSCs (4×10^3 cells/well) were cultured in 96-well dishes for 24 hours. (2) The cells were treated with […] of each of ER-FT derivative compounds (Formulas IV to VII) at concentrations of 5, 10, 20 and 40 μM and then incubated at 37° C. for 24 hours. (3) 10 μl of 10× EZ-cytox was added to each well, followed by incubation for 3 hours. (4) The absorbance at 450 nm was measured using a plate reader (reference wavelength: 600 to 650 nm).

The term IC50 denotes the concentration needed to halve the response being measured. `N#CC(=Cc1cc2cc3c4c(c2oc1=O)CCCN4CCC3)C(=O)N1CCC(C(=O)NCCNC(=O)c2c(F)c(F)c(F)c(F)c2F)CC1` [Formula VI] returned a concentration for half-maximal inhibition (IC50) of 33.4 µM.
For `Cc1ccc(S(=O)(=O)NCCCOCCOCCOCCCNC(=O)C2CCN(C(=O)C(C#N)=Cc3cc4cc5c6c(c4oc3=O)CCCN6CCC5)CC2)cc1` [Formula V], the IC50 turned out to be 36.4 µM.
As for `Cc1ccc(S(=O)(=O)NCCNC(=O)C2CCN(C(=O)C(C#N)=Cc3cc4cc5c6c(c4oc3=O)CCCN6CCC5)CC2)cc1` [Formula IV], half-maximal inhibition (IC50) required 43.4 µM. Besides, the “toxicity (comparison among Formulas IV to VII)” value (24 hours) is listed as “lowest toxicity”.
The compound `N#CC(=Cc1cc2cc3c4c(c2oc1=O)CCCN4CCC3)C(=O)N1CCC(C(=O)NCCCOCCOCCOCCCNC(=O)c2c(F)c(F)c(F)c(F)c2F)CC1` [Formula VII] came in with a half-maximal inhibitory concentration (IC50) of 13.3 µM.
